Test results reported in ChEMBL document CHEMBL3627643, “Synthesis of stereochemically diverse cyclic analogs of tubulysins” (Bioorg Med Chem, 2015).

Molecular target: Tubulin (Sus scrofa) (UniProt P02554+P02550)
Assay: Inhibition of pig tubulin polymerization at 5 uM incubated for 20 mins at 37 degC by fluorescence based tubulin polymerization inhibition assay
Type: protein assay

Sequence of Tubulin (Sus scrofa) (P02550 whole entry, looked up): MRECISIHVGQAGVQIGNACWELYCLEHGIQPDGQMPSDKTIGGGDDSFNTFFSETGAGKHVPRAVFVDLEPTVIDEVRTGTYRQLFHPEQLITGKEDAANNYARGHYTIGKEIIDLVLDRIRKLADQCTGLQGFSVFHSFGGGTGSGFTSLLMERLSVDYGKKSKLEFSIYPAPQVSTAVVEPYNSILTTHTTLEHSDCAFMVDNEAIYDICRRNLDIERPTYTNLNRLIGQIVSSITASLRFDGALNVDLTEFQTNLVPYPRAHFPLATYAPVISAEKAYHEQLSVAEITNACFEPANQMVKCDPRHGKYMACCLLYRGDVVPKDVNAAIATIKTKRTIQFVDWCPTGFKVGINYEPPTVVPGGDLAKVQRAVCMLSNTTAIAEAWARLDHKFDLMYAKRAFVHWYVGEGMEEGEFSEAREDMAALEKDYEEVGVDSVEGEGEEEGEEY
Sequence of Tubulin (Sus scrofa) (P02554 whole entry, looked up): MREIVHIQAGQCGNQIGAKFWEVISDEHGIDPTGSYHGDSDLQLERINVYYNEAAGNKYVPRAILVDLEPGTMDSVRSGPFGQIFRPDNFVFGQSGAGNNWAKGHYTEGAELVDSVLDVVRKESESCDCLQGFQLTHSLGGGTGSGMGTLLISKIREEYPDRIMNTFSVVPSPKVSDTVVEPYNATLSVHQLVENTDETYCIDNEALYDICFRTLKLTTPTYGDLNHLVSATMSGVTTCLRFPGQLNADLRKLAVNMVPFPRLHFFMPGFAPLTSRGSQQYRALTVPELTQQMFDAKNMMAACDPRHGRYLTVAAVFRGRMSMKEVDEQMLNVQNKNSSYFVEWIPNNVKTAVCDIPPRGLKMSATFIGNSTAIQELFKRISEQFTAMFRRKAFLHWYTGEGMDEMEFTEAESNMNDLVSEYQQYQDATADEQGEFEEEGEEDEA

| inhibition | Structure (SMILES) |
| --- | --- |
| 15.8% | CC[C@H](C)[C@@H](C(=O)N[C@H]1CCO[C@@H](c2nc(C(=O)NCCc3ccccc3)cs2)C1)N(C)C |
| 12.9% | CC[C@H](C)[C@H](NC(=O)CN(C)C)C(=O)N[C@H]1CCO[C@@H](c2nc(C(=O)NC(C)C)cs2)C1 |
| 7.46% | CC[C@H](C)[C@H](NC(=O)[C@H]1CCCCN1C)C(=O)N(C)[C@H]1CCO[C@@H](c2nc(C(=O)NCCN3CCOCC3)cs2)C1 |
| 2.23% | CC[C@H](C)[C@H](NC(=O)[C@H]1CCCCN1C)C(=O)N[C@@H]1CCO[C@@H](c2nc(C(=O)NCCc3ccccc3)cs2)C1 |
| 3.9% | CC[C@H](C)[C@H](NC(=O)[C@H]1CCCCN1C)C(=O)N[C@@H]1CCO[C@@H](c2nc(C(=O)NC(C)C)cs2)C1 |
| 8.73% | CC[C@H](C)[C@H](NC(=O)[C@H]1CCCCN1C)C(=O)N[C@H]1CCO[C@H](c2nc(C(=O)NC(C)C)cs2)C1 |
| 73.9% | CC[C@]1(O)C[C@@H]2CN(CCc3c([nH]c4ccccc34)[C@@](C(=O)OC)(c3cc4c(cc3OC)N(C)[C@H]3[C@@](O)(C(=O)OC)[C@H](OC(C)=O)[C@]5(CC)C=CCN6CC[C@]43[C@@H]65)C2)C1 |
| 1.45% | CC[C@H](C)[C@H](NC(=O)[C@H]1CCCCN1C)C(=O)N[C@@H]1CCO[C@H](c2nc(C(=O)NC(C)C)cs2)C1 |
| 10.2% | CC[C@H](C)[C@H](NC(=O)[C@H]1CCCCN1C)C(=O)N(C)[C@H]1CCO[C@@H](c2nc(C(=O)NCc3ccccc3)cs2)C1 |
| 20.2% | CC[C@H](C)[C@H](NC(=O)[C@H]1CCCCN1C)C(=O)N(C)[C@H]1CCO[C@@H](c2nc(C(=O)NCCc3ccccn3)cs2)C1 |
| 10.6% | CC[C@H](C)[C@H](NC(=O)[C@H]1CCCCN1C)C(=O)N(C)[C@H]1CCO[C@@H](c2nc(C(=O)NCCOC)cs2)C1 |
| 3.76% | CC[C@H](C)[C@H](NC(=O)[C@H]1CCCCN1C)C(=O)N[C@@H]1CCO[C@H](c2nc(C(=O)NCCc3ccccc3)cs2)C1 |
| 5.35% | CC[C@H](C)[C@H](NC(=O)[C@H]1CCCCN1C)C(=O)N[C@H]1CCO[C@@H](c2nc(C(=O)NC(C)C)cs2)C1 |
| 15.5% | CC[C@H](C)[C@H](NC(=O)[C@H]1CCCCN1C)C(=O)N(C)[C@H]1CCO[C@@H](c2nc(C(=O)NC(C)C)cs2)C1 |
| 8.52% | CC[C@H](C)[C@H](N)C(=O)N[C@H]1CCO[C@@H](c2nc(C(=O)NCCc3ccccc3)cs2)C1 |
| 1.62% | CC[C@H](C)[C@H](NC(=O)[C@H]1CCCCN1C)C(=O)N[C@H]1CCO[C@@H](c2nc(C(=O)NCCc3ccccc3)cs2)C1 |
| 5.87% | CC[C@H](C)[C@H](NC(=O)[C@H]1CCCCN1C)C(=O)N(C)[C@H]1CCO[C@@H](c2nc(C(=O)NCCc3ccccc3)cs2)C1 |
| 5.61% | CC[C@H](C)[C@H](NC(=O)[C@H]1CCCCN1C)C(=O)N[C@H]1CCO[C@H](c2nc(C(=O)NCCc3ccccc3)cs2)C1 |
| 10.6% | CC[C@H](C)[C@H](N)C(=O)N[C@H]1CCO[C@@H](c2nc(C(=O)NC(C)C)cs2)C1 |
| 19.9% | CC[C@H](C)[C@H](NC(=O)CN(C)C)C(=O)N[C@H]1CCO[C@@H](c2nc(C(=O)NCCc3ccccc3)cs2)C1 |
| 16.9% | CC[C@H](C)[C@@H](C(=O)N[C@H]1CCO[C@@H](c2nc(C(=O)NC(C)C)cs2)C1)N(C)C |

| Structure (SMILES) | inhibition |
| --- | --- |
| CC[C@@H](C)[C@H](NC(=O)[C@H]1CCCCN1C)C(=O)N(COC(=O)CC(C)C)[C@H](C[C@@H](OC(C)=O)c1nc(C(=O)N[C@@H](Cc2ccc(O)cc2)C[C@H](C)C(=O)O)cs1)C(C)C | 72.6% |
